Laboratory results reported in patent US20180298332A1, “Microfluidic Model of the Blood Brain Barrier” (EMULATE, Inc., priority 2015, published 2018).

Tests used:
neurons seeded in chip = type: cell-based, human
[1] = system: cell monolayers with tight junctions; details: cited from earlier work
iBMEC barrier function = assay: TEER measurement on prototype TEER chips under flow; type: cell-based, human; details: chip under flow, then exposure to TNFa; FIG. 14A
Protocol: Cells were plated on tall channel PDMS chips equipped with incorporated gold electrodes on each channel (see FIG. 13A). Post seeding of BMECs, transendothelial electrical resistance was measured by connecting the electrodes to an EVOM2 voltohmmeter (see FIG. 13B). […] The “damaged” chip was a failure due to the TEER-Chips being a prototype.
Higher TEER values generally indicate a tighter barrier, which is typically desirable for a blood-brain barrier.

[2] = system: BMECs seeded on a microfluidic device; assay: Paracellular permeability assay with Dextran-FITC on chip; type: cell-based, human; details: TNF-alpha exposure; Dextran-FITC 4 KDa added to bottom channel, measured in top channel; FIG. 14B
Text: Brain microvascular endothelial cells (BMECs) constitute the blood-brain barrier (BBB) which forms a dynamic interface between the blood and the central nervous system (CNS) in vivo. This highly specialized interface restricts paracellular diffusion of fluids and solutes including chemicals, toxins and drugs from entering the brain. In this example, fluorescein sodium is used in a paracellular permeability assay of the BMECs seeded on a microfluidic device.
Albumin or Dextran conjugated to a fluorescent probe (e.g., FITC or TRITC) are frequently used to monitor changes in leakage, and thus barrier function. In this case, Dextran-FITC, a green fluorescent molecule of 4 KDa, or sodium fluorescein (a 0.3 KDa molecule), was added to the bottom (“blood side”) channel. Paracellular permeability was calculated by measuring the permeability of the fluorescent molecule on the Top (“brain side”) channel. […] FIG. 14B involves TNF-alpha exposure, but the readout is membrane permeability as measured by Dextran-FITC.

For `NC1=N[C@H](O)[C@H]2[C@H]3O[C@]4(O)O[C@@H]([C@@H](O)[C@@]2(N1)[C@@H]4O)[C@]3(O)CO` [tetrodotoxin], the “neuronal calcium flux activity” value (neurons seeded in chip) was “ablates this activity”.
For Lucifer Yellow, the “Permeability (Papp)” value [1] is given as 5 to 12 nm/s.
For TNFa, the “iBMEC barrier function (TEER) after exposure of the chips” value (iBMEC barrier function) was “weakening of barrier function” and the “membrane permeability as measured by Dextran-FITC” value [2] was “increase in permeability”.
